Assay results reported in article PMC12262901, “Natural product-mediated reaction hijacking mechanism validates Plasmodium aspartyl-tRNA synthetase as an antimalarial drug target” (PLOS Pathogens, 2025).

Columns and labels:
[1] = target: native length PvAspRS (51-631), Plasmodium vivax aspartyl tRNA synthetase (P. vivax); assay: SEC; gel filtration after removal of the His-tags; 25 mM or 50 mM Tris-HCl pH 8.0, 150 mM NaCl, 0.5 or 1 mM TCEP
[2] = target: T1, truncated PvAspRS (96-631) (Plasmodium vivax, UniProt A5K9Y2); assay: X-ray crystal structure, […] Å; type: binding; conditions: active site of catalytic domain, both chains; possible radiation damage at the 2-Cl
T1 construct: gene PVX_081610; residues 96-631, lacks N-terminal extension, pETM-41 vector, expressed in E. coli BL21(DE3), tag removed with TEV protease, homodimer
T1 sequence (A5K9Y2 96-631): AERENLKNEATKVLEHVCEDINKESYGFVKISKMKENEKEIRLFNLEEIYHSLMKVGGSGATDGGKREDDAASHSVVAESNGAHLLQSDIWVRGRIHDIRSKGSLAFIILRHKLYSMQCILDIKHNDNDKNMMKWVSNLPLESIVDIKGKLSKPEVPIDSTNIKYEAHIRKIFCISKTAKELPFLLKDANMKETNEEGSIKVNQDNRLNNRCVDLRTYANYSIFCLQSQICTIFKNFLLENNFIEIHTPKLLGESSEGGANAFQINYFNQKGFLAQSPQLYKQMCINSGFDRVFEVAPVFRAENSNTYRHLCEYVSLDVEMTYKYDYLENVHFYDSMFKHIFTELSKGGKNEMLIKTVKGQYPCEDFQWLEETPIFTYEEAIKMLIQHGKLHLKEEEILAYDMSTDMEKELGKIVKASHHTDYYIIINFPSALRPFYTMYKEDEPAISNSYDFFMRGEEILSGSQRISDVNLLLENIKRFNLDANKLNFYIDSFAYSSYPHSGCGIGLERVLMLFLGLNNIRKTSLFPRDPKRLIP

HsAspRS (1-501) [3] = target: T2, HsAspRS (1-501) (Homo sapiens, UniProt P14868); assay: differential scanning fluorimetry; type: binding; conditions: 2 or 5 µM synthetic Asp-DACM, pH 8, 37 °C, 3 h
T2 construct: gene DARS1; full-length 1-501, codon-optimised, expressed in E. coli BL21(DE3), His-tag removed with TEV protease, homodimer
T2 sequence (P14868 1-501): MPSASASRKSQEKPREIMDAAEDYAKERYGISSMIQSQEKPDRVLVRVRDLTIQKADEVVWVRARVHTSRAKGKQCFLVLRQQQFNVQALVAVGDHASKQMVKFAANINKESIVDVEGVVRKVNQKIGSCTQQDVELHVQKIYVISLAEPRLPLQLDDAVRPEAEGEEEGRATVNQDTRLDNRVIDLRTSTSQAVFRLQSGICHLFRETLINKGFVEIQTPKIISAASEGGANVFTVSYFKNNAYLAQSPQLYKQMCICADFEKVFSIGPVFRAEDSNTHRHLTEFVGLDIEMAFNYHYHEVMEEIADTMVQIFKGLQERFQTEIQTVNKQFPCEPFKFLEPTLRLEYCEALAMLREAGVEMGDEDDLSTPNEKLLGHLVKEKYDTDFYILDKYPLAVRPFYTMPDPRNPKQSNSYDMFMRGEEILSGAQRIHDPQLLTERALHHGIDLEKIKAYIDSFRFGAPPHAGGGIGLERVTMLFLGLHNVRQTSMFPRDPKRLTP

[4] = target: T3, native length PfAspRS (49-626) (Plasmodium falciparum, UniProt Q8I2B1); assay: differential scanning fluorimetry; type: binding; conditions: 2 or 5 µM synthetic Asp-DACM, pH 8, 37 °C, 3 h
T3 construct: gene PF3D7_0102900; residues 49-626, cytoplasmic, codon-optimised, expressed in E. coli BL21(DE3), N-terminal His-tag removed with TEV protease, homodimer; observed mass 67831 Da
T3 sequence (Q8I2B1 49-626): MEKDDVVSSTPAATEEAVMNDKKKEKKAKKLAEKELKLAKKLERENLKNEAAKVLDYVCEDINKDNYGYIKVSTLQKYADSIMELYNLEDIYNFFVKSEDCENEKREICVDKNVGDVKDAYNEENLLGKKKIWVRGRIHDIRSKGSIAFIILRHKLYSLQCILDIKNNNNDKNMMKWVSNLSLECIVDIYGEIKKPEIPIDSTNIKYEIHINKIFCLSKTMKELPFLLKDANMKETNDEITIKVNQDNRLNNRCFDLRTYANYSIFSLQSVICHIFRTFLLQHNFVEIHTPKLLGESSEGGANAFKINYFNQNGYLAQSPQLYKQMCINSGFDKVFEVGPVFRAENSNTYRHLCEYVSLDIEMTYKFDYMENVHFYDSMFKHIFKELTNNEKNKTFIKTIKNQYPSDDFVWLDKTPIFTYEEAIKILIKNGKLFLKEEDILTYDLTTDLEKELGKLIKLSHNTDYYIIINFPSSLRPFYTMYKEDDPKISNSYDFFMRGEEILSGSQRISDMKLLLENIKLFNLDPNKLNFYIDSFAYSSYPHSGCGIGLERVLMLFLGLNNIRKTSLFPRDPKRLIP

[5] = target: T4, native length PvAspRS (51-631) (Plasmodium vivax, UniProt A5K9Y2); assay: differential scanning fluorimetry; type: binding; conditions: 2 or 5 µM synthetic Asp-DACM, pH 8, 37 °C, 3 h
T4 construct: gene PVX_081610; residues 51-631, codon-optimised, expressed in E. coli BL21(DE3), N-terminal His-tag removed with TEV protease, homodimer
T4 sequence (A5K9Y2 51-631): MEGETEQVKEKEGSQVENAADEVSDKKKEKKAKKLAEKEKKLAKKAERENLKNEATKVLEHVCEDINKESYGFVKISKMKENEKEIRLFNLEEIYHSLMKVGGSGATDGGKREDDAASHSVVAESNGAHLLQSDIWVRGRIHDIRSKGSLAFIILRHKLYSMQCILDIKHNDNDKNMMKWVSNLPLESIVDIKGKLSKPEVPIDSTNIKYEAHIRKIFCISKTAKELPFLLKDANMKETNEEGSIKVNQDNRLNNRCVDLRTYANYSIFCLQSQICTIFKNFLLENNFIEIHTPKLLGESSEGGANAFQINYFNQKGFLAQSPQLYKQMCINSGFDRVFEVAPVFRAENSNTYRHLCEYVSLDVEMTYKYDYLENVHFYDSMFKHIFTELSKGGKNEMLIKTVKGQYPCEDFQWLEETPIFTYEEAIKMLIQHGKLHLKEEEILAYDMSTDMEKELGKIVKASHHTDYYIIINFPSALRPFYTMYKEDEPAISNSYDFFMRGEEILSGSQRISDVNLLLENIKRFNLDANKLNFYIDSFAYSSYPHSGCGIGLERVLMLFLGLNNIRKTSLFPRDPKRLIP

[6] = target: native length PfAspRS (49-626), Plasmodium falciparum cytoplasmic aspartyl tRNA synthetase (P. falciparum); assay: SEC; gel filtration after removal of the His-tags; 25 mM or 50 mM Tris-HCl pH 8.0, 150 mM NaCl, 0.5 or 1 mM TCEP
[7] = target: native length PfAspRS (49-626), Plasmodium falciparum cytoplasmic aspartyl tRNA synthetase (P. falciparum); assay: AUC; sedimentation velocity, c(s) model; PfAspRS at 1, 0.6 and 0.2 mg/mL in 50 mM Tris pH 8.0, 150 mM NaCl, 1 mM TCEP; 200,000 g, 20°C, absorbance at 290 nm
[8] = target: T1, truncated PvAspRS (96-631); assay: X-ray crystal structure, […] Å; type: binding; conditions: active site, both chains; Mg2+ in chain B
[9] = target: T1, truncated PvAspRS (96-631); assay: Kinase-Glo ATP consumption assay; type: biochemical; conditions: 10 µM ATP, 200 µM L-Asp, 80 µM E. coli tRNA, 5 mM MgCl2, pyrophosphatase, pH 8, 37 °C
[10] = target: T3, native length PfAspRS (49-626); assay: Kinase-Glo ATP consumption assay; type: biochemical; conditions: 10 µM ATP, 200 µM L-Asp, 80 µM E. coli tRNA, 5 mM MgCl2, pyrophosphatase, pH 8, 37 °C
HsAspRS (1-501) [11] = target: T2, HsAspRS (1-501); assay: Kinase-Glo ATP consumption assay; type: biochemical; conditions: 10 µM ATP, 200 µM L-Asp, 160 µM E. coli tRNA, 5 mM MgCl2, pyrophosphatase, pH 8, 37 °C
[12] = target: T4, native length PvAspRS (51-631); assay: Kinase-Glo ATP consumption assay; type: biochemical; conditions: 10 µM ATP, 200 µM L-Asp, 80 µM E. coli tRNA, 5 mM MgCl2, pyrophosphatase, pH 8, 37 °C
[13] = target: T4, native length PvAspRS (51-631); assay: differential scanning fluorimetry after […] h incubation with substrates; type: binding; conditions: AMS (10 or 50 µM) with 10 µM ATP, 20 µM L-Asp, 80 µM E. coli tRNA, 5 mM MgCl2, pH 8, 37 °C; reaction hijacking, covalent Asp-AMS adduct made by the enzyme; value is the Tm, not the shift
[14] = target: T3, native length PfAspRS (49-626); assay: as above; type: binding; conditions: AMS (10 or 50 µM) with 10 µM ATP, 20 µM L-Asp, 80 µM E. coli tRNA, 5 mM MgCl2, pH 8, 37 °C; reaction hijacking, covalent Asp-AMS adduct made by the enzyme; value is the Tm, not the shift
[15] = target: T1, truncated PvAspRS (96-631); assay: X-ray crystal structure, […] Å; type: binding; conditions: active site, both chains; crystallised with ATP and L-Asp
[16] = target: T4, native length PvAspRS (51-631); assay: differential scanning fluorimetry after […] h incubation with substrates; type: binding; conditions: read-out: dTm
[17] = target: T5, full-length HsAspRS (1-501), human aspartyl tRNA synthetase (human), P14868; assay: SEC; gel filtration after removal of the His-tags; 25 mM or 50 mM Tris-HCl pH 8.0, 150 mM NaCl, 0.5 or 1 mM TCEP; conditions: remark: other sources report otherwise
T5 chain: T2 sequence (P14868 1-501)

native length PvAspRS (51-631), Plasmodium vivax aspartyl tRNA synthetase (enzyme)
stoichiometry N [1]: 2

Nc1nc(Cl)nc2c1ncn2[C@@H]1O[C@H](COS(=O)(=O)NC(=O)[C@@H](N)CC(=O)O)[C@@H](O)[C@H]1O [Asp-DACM, 2-chloro-5′-O-[N-(L-aspartyl)-sulfamoyl] adenosine]
X-ray crystal structure, 2.4 Å [2]: We solved the structure of PvAspRS with bound synthetic Asp-DACM
dTm (HsAspRS (1-501) [3]): synthetic Asp-DACM increased the Tm values of PfAspRS, PvAspRS and HsAspRS
dTm [4]: synthetic Asp-DACM increased the Tm values of PfAspRS, PvAspRS and HsAspRS
dTm [5]: synthetic Asp-DACM increased the Tm values of PfAspRS, PvAspRS and HsAspRS

native length PfAspRS (49-626), Plasmodium falciparum cytoplasmic aspartyl tRNA synthetase (enzyme)
stoichiometry N [6]: 2
stoichiometry N [7]: 2

Nc1ncnc2c1ncn2[C@@H]1O[C@H](COS(=O)(=O)NC(=O)[C@@H](N)CC(=O)O)[C@@H](O)[C@H]1O [Asp-AMS, 5′-O-(N-L-aspartate)-sulfamoyl-adenosine]
X-ray crystal structure, 1.8 Å [8]: We also solved the structure of PvAspRS with bound synthetic Asp-AMS

Nc1ncnc2c1ncn2[C@@H]1O[C@H](COP(=O)(O)OP(=O)(O)OP(=O)(O)O)[C@@H](O)[C@H]1O [ATP]
Kinase-Glo ATP consumption assay [9]: marked increase in ATP consumption in the presence of EctRNA
Kinase-Glo ATP consumption assay [10]: Addition of EctRNA substantively increased the level of ATP consumption
Kinase-Glo ATP consumption assay (HsAspRS (1-501) [11]): Addition of EctRNA substantively increased the level of ATP consumption
Kinase-Glo ATP consumption assay [12]: Addition of EctRNA substantively increased the level of ATP consumption

Nc1ncnc2c1ncn2[C@@H]1O[C@H](COS(N)(=O)=O)[C@@H](O)[C@H]1O [AMS]
Tm [13]: 59.5 °C
Tm [14]: 57.0 °C

Nc1ncnc2c1ncn2[C@@H]1O[C@H](COP(=O)(O)OC(=O)[C@@H](N)CC(=O)O)[C@@H](O)[C@H]1O [Asp-AMP]
X-ray crystal structure, 2.1 Å [15]: We also solved the structure of PvAspRS with the natural intermediate, Asp-AMP

Nc1nc(Cl)nc2c1ncn2[C@@H]1O[C@H](COS(N)(=O)=O)[C@@H](O)[C@H]1O [DACM, 5′-O-sulfamoyl-2-chloroadenosine]
ΔTm at 10 µM [16]: 19 °C

B1: full-length HsAspRS (1-501), human aspartyl tRNA synthetase, P14868-1 1-501 (enzyme)
chain: T2 sequence (P14868 1-501)
stoichiometry N [17]: 2
